We go through 20 compounds from US20250281424A1 (New York Blood Center, Inc, priority 2020, published 2025).

In general, IC50 refers to the point on the concentration scale where inhibition reaches its midpoint.

The assay has as its target T1, human PF4 (Homo sapiens, UniProt P02776).
T1 construct: PF4 is a 70 amino acid, lysine-rich 7.8 kDa platelet-specific protein; made in house; host or cells: Escherichia coli BL21DE3 pLysS (pT7-7) and/or Drosophila S2 cells
T1 sequence (P02776 32-101): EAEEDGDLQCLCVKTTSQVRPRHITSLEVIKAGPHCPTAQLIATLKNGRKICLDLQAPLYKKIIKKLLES
As to the kind of experiment: Inhibition of PF4 tetramer formation (BS3 cross-linking, SDS-PAGE). The format is biochemical. Particulars: for inhibition at 1 µM: 1 μM inhibitor; for inhibition at 1 µM / inhibition at 3 µM / inhibition at 5 µM / inhibition at 10 µM: read-out: % inhibition of PF4 tetramer formation at single concentration of inhibitor; for inhibition at 3 µM: 3 μM inhibitor (column A); for inhibition at 5 µM: 5 μM inhibitor; for inhibition at 10 µM: 10 μM inhibitor (column A); for IC50: read-out: IC50 of PF4 tetramer formation inhibition. The procedure, abridged:
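Monomer, dimer, trimer and tetramer fractions were quantified by densitometry after reducing 12% SDS-PAGE of BS3-cross-linked (0.2 mM, 30 min, room temperature) PF4. Before cross-linking, 10 μg/ml E. coli-expressed human WT PF4 in PBS was exposed to compound for 15 min at 37° C or 60 min at room temperature; controls lacked compound.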

As for `O=C(O)CNC(=O)C1C(=O)c2ccc(C(=O)c3ccc4c(c3)C(=O)C(C(=O)NCC(=O)O)C4=O)cc2C1=O` (stereo not shown) [Example 309, 2-[(5-{2-[(carboxymethyl)carbamoyl]-1,3-dioxo-2,3-dihydro-1H-indene-5-carbonyl}-1,3-dioxo-2,3-dihydro-1H-inden-2-yl)formamido]acetic acid], the inhibition at 1 µM turned out to be 20% and the inhibition at 3 µM came to 32%.
As for `O=C(c1ccc2c(c1)C(=O)C(C(=O)NC1CCC1)C2=O)c1ccc2c(c1)C(=O)C(C(=O)NC1CCC1)C2=O` (stereo not shown) [Example 68, 5,5′-carbonylbis(n-cyclobutyl-1,3-dioxo-2,3-dihydro-1h-indene-2-carboxamide)], the inhibition at 5 µM worked out at 45%, the inhibition at 10 µM is 86% and the IC50 was 1540 nM.
On to `CC(C)(C)OC(=O)N1C[C@@H]2[C@H](C1)[C@H]2C(=O)C1C(=O)c2ccc(C(=O)c3ccc4c(c3)C(=O)C(C(=O)[C@H]3[C@@H]5CN(C(=O)OC(C)(C)C)C[C@@H]53)C4=O)cc2C1=O` (stereo partly shown) [Example 121], for which the inhibition at 5 µM was determined as 82%, the inhibition at 10 µM was found to be 80% and the half-inhibitory concentration (IC50) was found to be 3500 nM.
In the same order, the values of `CC(C)(C)OC(=O)NCCC(=O)C1C(=O)c2ccc(C(=O)c3ccc4c(c3)C(=O)C(C(=O)CCNC(=O)OC(C)(C)C)C4=O)cc2C1=O` (stereo not shown) [Example 163, tert-butyl N-(3-{5-[2-(3-{[(tert-butoxy)carbonyl]amino}propanoyl)-1,3-dioxo-2,3-dihydro-1H-indene-5-carbonyl]-1,3-dioxo-2,3-dihydro-1H-inden-2-yl}-3-oxopropyl)carbamate] are 87%, 93% and 13000 nM.
Consider `CC[C@H](C)[C@H](NC(=O)OC(C)(C)C)C(=O)C1C(=O)c2ccc(S(=O)(=O)c3ccc4c(c3)C(=O)C(C(=O)[C@@H](NC(=O)OC(C)(C)C)[C@@H](C)CC)C4=O)cc2C1=O` (stereo partly drawn) [Example 279, tert-butyl N-[(2S,3S)-1-[5-({2-[(2S,3S)-2-{[(tert-butoxy)carbonyl]amino}-3-methylpentanoyl]-1,3-dioxo-2,3-dihydro-1H-inden-5-yl}sulfonyl)-1,3-dioxo-2,3-dihydro-1H-inden-2-yl]-3-methyl-1-oxopentan-2-yl]carbamate], for which the inhibition at 1 µM amounted to 33%, the inhibition at 3 µM is 15% and the IC50 stood at 3000 nM.
Regarding `COCCOCC(=O)C1C(=O)c2ccc(C(=O)c3ccc4c(c3)C(=O)C(C(=O)COCCOC)C4=O)cc2C1=O` (stereo not shown) [Example 395, 2-[2-(2-methoxyethoxy)acetyl]-5-{2-[2-(2-methoxyethoxy)acetyl]-1,3-dioxo-2,3-dihydro-1H-indene-5-carbonyl}-2,3-dihydro-1H-indene-1,3-dione], the inhibition at 1 µM amounted to 2% and the inhibition at 3 µM is 13%.
As to `Cc1ccccc1NC(=O)C1C(=O)c2ccc(S(=O)(=O)c3ccc4c(c3)C(=O)C(C(=O)Nc3ccccc3C)C4=O)cc2C1=O` (stereo not shown) [Example 85, N-(2-methylphenyl)-5-({2-[(2-methylphenyl)carbamoyl]-1,3-dioxo-2,3-dihydro-1H-inden-5-yl}sulfonyl)-1,3-dioxo-2,3-dihydro-1H-indene-2-carboxamide], the half-inhibitory concentration (IC50) turned out to be 2500 nM.
Regarding `O=C1c2ccc(S(=O)(=O)c3ccc4c(c3)C(=O)C(C(=O)C3CCCS3(=O)=O)C4=O)cc2C(=O)C1C(=O)C1CCCS1(=O)=O` (stereo not shown) [Example 372, 2-(5-{[2-(1,1-dioxo-1λ^6-thiolane-2-carbonyl)-1,3-dioxo-2,3-dihydro-1H-inden-5-yl]sulfonyl}-1,3-dioxo-2,3-dihydro-1H-indene-2-carbonyl)-1λ^6-thiolane-1,1-dione], the inhibition at 3 µM was 30%.
`O=C(c1ccc2c(c1)C(=O)C(C(=O)C1CCN(C(=O)OCc3ccccc3)C1)C2=O)c1ccc2c(c1)C(=O)C(C(=O)C1CCN(C(=O)OCc3ccccc3)C1)C2=O` (stereo not shown) [Example 159, benzyl 3-[5-(2-{1-[(benzyloxy)carbonyl]pyrrolidine-3-carbonyl}-1,3-dioxo-2,3-dihydro-1H-indene-5-carbonyl)-1,3-dioxo-2,3-dihydro-1H-indene-2-carbonyl]pyrrolidine-1-carboxylate]: the inhibition at 5 µM was determined as 85%, the inhibition at 10 µM was found to be 90% and the IC50 is 3800 nM.
On to `O=C(CSc1ccncc1)C1C(=O)c2ccc(S(=O)(=O)c3ccc4c(c3)C(=O)C(C(=O)CSc3ccncc3)C4=O)cc2C1=O` (stereo not shown) [Example 290, 5-({1,3-dioxo-2-[2-(pyridin-4-ylsulfanyl)acetyl]-2,3-dihydro-1H-inden-5-yl}sulfonyl)-2-[2-(pyridin-4-ylsulfanyl)acetyl]-2,3-dihydro-1H-indene-1,3-dione], for which the inhibition at 1 µM is 39% and the inhibition at 3 µM was 51%.
Consider `COCCC(=O)C1C(=O)c2ccc(C(=O)c3ccc4c(c3)C(=O)C(C(=O)CCOC)C4=O)cc2C1=O` (stereo not shown) [Example 176, 2-(3-methoxypropanoyl)-5-[2-(3-methoxypropanoyl)-1,3-dioxo-2,3-dihydro-1H-indene-5-carbonyl]-2,3-dihydro-1H-indene-1,3-dione], for which the inhibition at 5 µM is 21% and the inhibition at 10 µM stood at 77%.
On the same counts, the results for `C[C@@H]1CC[C@@H](C(=O)C2C(=O)c3ccc(C(=O)c4ccc5c(c4)C(=O)C(C(=O)[C@@H]4CC[C@@H](C)N4C(=O)OC(C)(C)C)C5=O)cc3C2=O)N1C(=O)OC(C)(C)C` (stereo partly drawn) [Example 120B, tert-butyl (2S,5R)-2-(5-{2-[(2S,5R)-1-[(tert-butoxy)carbonyl]-5-methylpyrrolidine-2-carbonyl]-1,3-dioxo-2,3-dihydro-1H-indene-5-carbonyl}-1,3-dioxo-2,3-dihydro-1H-indene-2-carbonyl)-5-methylpyrrolidine-1-carboxylate] are 75% and 86%.
As for `CC(=O)C1C(=O)c2ccc(N(C)S(=O)(=O)c3ccc4c(c3)C(=O)C(C(C)=O)C4=O)cc2C1=O` (stereo not shown) [Example 314, -acetyl-N-(2-acetyl-1,3-dioxo-2,3-dihydro-1H-inden-5-yl)-N-methyl-1,3-dioxo-2,3-dihydro-1H-indene-5-sulfonamide], the inhibition at 1 µM was determined as 9% and the inhibition at 3 µM came to 28%.
On to `CCCCC(=O)C1C(=O)c2ccc(S(=O)(=O)c3ccc4c(c3)C(=O)C(C(=O)CCCC)C4=O)cc2C1=O` (stereo not shown) [Example 154, 5-[(1,3-dioxo-2-pentanoyl-2,3-dihydro-1H-inden-5-yl)sulfonyl]-2-pentanoyl-2,3-dihydro-1H-indene-1,3-dione], for which the inhibition at 5 µM turned out to be 100%, the inhibition at 10 µM worked out at 100% and the IC50 came out at 1200 nM.
On to `CC(C)(C)OC(=O)NCC(=O)C1C(=O)c2ccc(C#Cc3ccc4c(c3)C(=O)C(C(=O)CNC(=O)OC(C)(C)C)C4=O)cc2C1=O` (stereo not shown) [Example 319, tert-butyl N-[2-(5-{2-[2-(2-{[(tert-butoxy)carbonyl]amino}acetyl)-1,3-dioxo-2,3-dihydro-1H-inden-5-yl]ethynyl}-1,3-dioxo-2,3-dihydro-1H-inden-2-yl)-2-oxoethyl]carbamate], for which the inhibition at 1 µM is 13% and the inhibition at 3 µM came to 22%.
`CC(C)C(=O)NCC(=O)C1C(=O)c2ccc(C(=O)c3ccc4c(c3)C(=O)C(C(=O)CNC(=O)C(C)C)C4=O)cc2C1=O` (stereo not shown) [Example 187, 2-methyl-N-[2-(5-{2-[2-(2-methylpropanamido)acetyl]-1,3-dioxo-2,3-dihydro-1H-indene-5-carbonyl}-1,3-dioxo-2,3-dihydro-1H-inden-2-yl)-2-oxoethyl]propanamide]: the inhibition at 5 µM came to 88%, the inhibition at 10 µM came to 90% and the half-inhibitory concentration (IC50) amounted to 2600 nM.
For the compound `O=C(c1ccc2c(c1)C(=O)C(C(=O)NC1CCS(=O)(=O)C1)C2=O)c1ccc2c(c1)C(=O)C(C(=O)NC1CCS(=O)(=O)C1)C2=O` (stereo not shown) [Example 361, N-(1,1-dioxo-1λ^6-thiolan-3-yl)-5-{2-[(1,1-dioxo-1λ^6-thiolan-3-yl)carbamoyl]-1,3-dioxo-2,3-dihydro-1H-indene-5-carbonyl}-1,3-dioxo-2,3-dihydro-1H-indene-2-carboxamide], the inhibition at 1 µM amounted to 9% and the inhibition at 3 µM is 34%.
Take `COC(=O)c1ccc(NC(=O)C2C(=O)c3ccc(S(=O)(=O)c4ccc5c(c4)C(=O)C(C(=O)Nc4ccc(C(=O)OC)cc4)C5=O)cc3C2=O)cc1` (stereo not shown) [Example 98, methyl 4-{5-[(2-{[4-(methoxycarbonyl)phenyl]carbamoyl}-1,3-dioxo-2,3-dihydro-1H-inden-5-yl)sulfonyl]-1,3-dioxo-2,3-dihydro-1H-indene-2-amido}benzoate]: the inhibition at 5 µM turned out to be 100% and the inhibition at 10 µM worked out at 100%.
Consider `CCOC(=O)C1(C(C)=O)C(=O)c2ccc(Oc3ccc4c(c3)C(=O)CC4=O)cc2C1=O` (stereo not shown) [Example 6, 2-acetyl-5-(1,3-dioxo-indan-5-yloxy)-1,3-dioxo-indan-2-carboxylic acid ethyl ester], for which the IC50 was 1050 nM.
With `CC(C)(C)OC(=O)N1CC=C[C@H]1C(=O)C1C(=O)c2ccc(C(=O)c3ccc4c(c3)C(=O)C(C(=O)[C@@H]3C=CCN3C(=O)OC(C)(C)C)C4=O)cc2C1=O` (stereo partly drawn) [Example 122, tert-butyl (2S)-2-(5-{2-[(2S)-1-[(tert-butoxy)carbonyl]-2,5-dihydro-1H-pyrrole-2-carbonyl]-1,3-dioxo-2,3-dihydro-1H-indene-5-carbonyl}-1,3-dioxo-2,3-dihydro-1H-indene-2-carbonyl)-2,5-dihydro-1H-pyrrole-1-carboxylate], the half-inhibitory concentration (IC50) was around 3000 nM.
